# ChEMBL document CHEMBL5385963, “Enhanced inhibitory activity of compounds containing purine scaffolds compared to protein kinase CK2α considering crystalline water” (RSC Med Chem, 2024)
# Target: Casein kinase II subunit alpha (Homo sapiens, UniProt P68400)
# Test: Inhibition of N-terminal GST-fusion protein tagged full length human CK2alpha1 (1 to 391 residues) expressed in baculovirus expression system co-expressing human His-tagged CK2beta using CK2tide as substrate incubated for 1 hrs in presence of ATP by off-chip mobility shift assay
# Chain of Casein kinase II subunit alpha (P68400 whole entry, the tested form may be a part): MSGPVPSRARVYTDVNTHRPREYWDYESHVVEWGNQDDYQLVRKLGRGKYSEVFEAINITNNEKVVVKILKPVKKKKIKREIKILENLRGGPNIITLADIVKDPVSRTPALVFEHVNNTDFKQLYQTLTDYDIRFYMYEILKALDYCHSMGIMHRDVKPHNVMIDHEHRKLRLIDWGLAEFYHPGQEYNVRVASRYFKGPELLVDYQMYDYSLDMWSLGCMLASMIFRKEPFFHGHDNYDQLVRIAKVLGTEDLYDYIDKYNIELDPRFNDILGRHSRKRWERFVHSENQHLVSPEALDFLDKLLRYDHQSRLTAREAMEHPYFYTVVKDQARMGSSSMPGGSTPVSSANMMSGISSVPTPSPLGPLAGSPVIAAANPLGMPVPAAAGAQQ
row,IC50,SMILES
1,0.38 µM,NC(=O)c1nc(-c2cccc(C(=O)O)c2)nc2c1[nH]c(=O)n2-c1ccc([N+](=O)[O-])cc1
2,18 µM,COc1cccc(-n2c(=O)[nH]c3c(C(N)=O)nc(-c4ccc(C(=O)O)cc4)nc32)c1
3,> 30 µM,NC(=O)c1nc(-c2ccc(C(=O)O)cc2)nc2c1[nH]c(=O)n2-c1ccc(Cl)cc1
4,4.3 µM,CN(C)c1ccc(-n2c(=O)[nH]c3c(C(N)=O)nc(-c4ccc(C(=O)O)cc4)nc32)cc1
5,11 µM,Cc1ccc(-n2c(=O)[nH]c3c(C(N)=O)nc(-c4ccc(C(=O)O)cc4)nc32)cc1
6,> 30 µM,NC(=O)c1nc(-c2ccc(C(=O)O)cc2)nc2c1[nH]c(=O)n2-c1ccc(F)cc1
7,> 30 µM,NC(=O)c1nc(CCCC(=O)O)nc2c1[nH]c(=O)n2-c1ccccc1
8,1 µM,NC(=O)c1nc(-c2cccc(C(=O)O)c2)nc2c1[nH]c(=O)n2-c1ccccc1
9,9.4 µM,COc1ccc(-n2c(=O)[nH]c3c(C(N)=O)nc(-c4ccc(C(=O)O)cc4)nc32)cc1
10,> 30 µM,NC(=O)c1nc(CC(=O)O)nc2c1[nH]c(=O)n2-c1ccccc1
11,5.4 µM,NC(=O)c1nc(-c2cccc(C(=O)O)c2)nc2c1[nH]c(=O)n2-c1ccc(Cl)cc1
12,0.18 µM,NC(=O)c1nc(-c2cccc(C(=O)O)c2)nc2c1[nH]c(=O)n2-c1ccc(F)cc1
13,15 µM,NC(=O)c1nc(CCC(=O)O)nc2c1[nH]c(=O)n2-c1ccccc1
14,> 30 µM,N#Cc1ccc(-n2c(=O)[nH]c3c(C(N)=O)nc(-c4ccc(C(=O)O)cc4)nc32)cc1
15,> 30 µM,NC(=O)c1nc(C(=O)O)nc2c1[nH]c(=O)n2-c1ccccc1
16,0.62 µM,Cc1ccc(-n2c(=O)[nH]c3c(C(N)=O)nc(-c4cccc(C(=O)O)c4)nc32)cc1
17,1.9 µM,COc1cccc(-n2c(=O)[nH]c3c(C(N)=O)nc(-c4cccc(C(=O)O)c4)nc32)c1
18,1 µM,NC(=O)c1nc(/C=C/C(=O)O)nc2c1[nH]c(=O)n2-c1ccccc1
19,2.6 µM,COc1ccc(-n2c(=O)[nH]c3c(C(N)=O)nc(-c4cccc(C(=O)O)c4)nc32)cc1
20,0.4 µM,N#Cc1ccc(-n2c(=O)[nH]c3c(C(N)=O)nc(-c4cccc(C(=O)O)c4)nc32)cc1
21,14 µM,NC(=O)c1nc(-c2ccc(C(=O)O)cc2)nc2c1[nH]c(=O)n2-c1ccccc1
22,> 30 µM,NC(=O)c1nc(-c2ccc(C(=O)O)cc2)nc2c1[nH]c(=O)n2-c1ccc([N+](=O)[O-])cc1
